According to PubChem BioAssay AID1259411 (Chemical Carcinogenesis Research Information System (CCRIS), 2018):
Calls of active or inactive are those of the source. The rule behind the calls is not given here.

Test system: rodent carcinogenicity bioassays, tumor incidence
Assay: CCRIS carcinogenicity studies
Method in brief: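 Archive of carcinogenicity, mutagenicity, tumor promotion and tumor inhibition results drawn from journals, NCI reports and other sources, expert-reviewed; covers 1985-2011 and is no longer updated.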

In the case of `CN(C)N=O`, the carcinogen call (Species: DUCK, Route: ORAL, Tumor Site: Type of Lesion: LIVER) is reported as “active; positive”, the carcinogen call (Species: FISH, Route: ORAL, Tumor Site: Type of Lesion: LIVER) is reported as “active; positive” and the carcinogen call (Species: GUINEA PIG, Route: ORAL, Tumor Site: Type of Lesion: LIVER) is reported as “active; positive”. The carcinogen call (Species: HAMSTER, Route: ORAL, Tumor Site: Type of Lesion: LIVER) was “active; positive”, the carcinogen call (Species: HAMSTER, Route: SUBCUTANEOUS, Tumor Site: Type of Lesion: LIVER, KIDNEY, NASAL CAVITY, Tumor Site: Type of Lesion: LIVER, KIDNEY, NASAL CAVITY) was “active; positive” and the carcinogen call (Species: HAMSTER, Strain/Sex: SYRIAN/MALE, Route: INTRATRACHEAL, Dose: 0, 0.05, 0.1 MG IN PHOSPHATE BUFFER 1/WK FOR 15 WK (TOTAL DOSE: 0; 0.75; 0.5 MG) (STUDY DURATION: LIFESPAN), Dose: 0, 0.05, 0.1 MG IN PHOSPHATE BUFFER 1/WK FOR 15 WK (TOTAL DOSE: 0; 0.75; 0.5 MG) (STUDY DURATION: LIFESPAN), Tumor Site: Type of Lesion: LIVER: HEMANGIOSARCOMA, TUMOR) was “active; positive”. For the same compound, the carcinogen call (Species: HAMSTER, Strain/Sex: SYRIAN/MALE, Route: INTRATRACHEAL, Dose: 0, 0.5 MG IN PHOSPHATE BUFFER ONCE (STUDY DURATION: LIFESPAN)) was “inactive; negative”, the carcinogen call (Species: MOUSE, Route: INHALATION, Tumor Site: Type of Lesion: LIVER, LUNG, KIDNEY, Tumor Site: Type of Lesion: LIVER, LUNG, KIDNEY) was “active; positive” and the carcinogen call (Species: MOUSE, Route: INTRAPERITONEAL, Tumor Site: Type of Lesion: LIVER, LUNG, KIDNEY, Tumor Site: Type of Lesion: LIVER, LUNG, KIDNEY) was “active; positive”. For the same compound, the carcinogen call (Species: MOUSE, Route: ORAL, Tumor Site: Type of Lesion: LIVER, LUNG, KIDNEY, Tumor Site: Type of Lesion: LIVER, LUNG, KIDNEY) was “active; positive”, the carcinogen call (Species: MOUSE, Route: SUBCUTANEOUS, Tumor Site: Type of Lesion: LIVER, LUNG) was “active; positive” and the carcinogen call (Species: MOUSE, Strain/Sex: C3H/FEMALE, Route: TRANSPLACENTAL, Dose: 0, 0.1 MMOL IN 0.9% STERILE SALINE (7.4 MG/KG) ON DAY 16 OF GESTATION (STUDY DURATION: LIFETIME), Tumor Site: Type of Lesion: LIVER: CARCINOMA) was “active; positive”. For the same compound, the carcinogen call (Species: MOUSE, Strain/Sex: C3H/FEMALE, Route: TRANSPLACENTAL, Dose: 0, 0.1 MMOL IN 0.9% STERILE SALINE (7.4 MG/KG) ON DAY 19 OF GESTATION (STUDY DURATION: LIFETIME), Tumor Site: Type of Lesion: LIVER: CARCINOMA) was “active; positive”, the carcinogen call (Species: MOUSE, Strain/Sex: C3H/MALE, Route: TRANSPLACENTAL, Dose: 0, 0.1 MMOL IN 0.9% STERILE SALINE (7.4 MG/KG) ON DAY 16 OF GESTATION (STUDY DURATION: LIFETIME)) was “inactive; negative” and the carcinogen call (Species: MOUSE, Strain/Sex: C3H/MALE, Route: TRANSPLACENTAL, Dose: 0, 0.1 MMOL IN 0.9% STERILE SALINE (7.4 MG/KG) ON DAY 19 OF GESTATION (STUDY DURATION: LIFETIME), Tumor Site: Type of Lesion: LIVER: CARCINOMA) was “active; positive”. For the same compound, the carcinogen call (Species: MOUSE, Strain/Sex: STRAIN-A/FEMALE, Route: INTRAPERITONEAL, Dose: 0, 5, 20 UMOL TOTAL DOSE ADMINISTERED IN SUBDOSES 3/WK FOR 7 WK (STUDY DURATION: 37 WK), Dose: 0, 5, 20 UMOL TOTAL DOSE ADMINISTERED IN SUBDOSES 3/WK FOR 7 WK (STUDY DURATION: 37 WK), Tumor Site: Type of Lesion: LUNG: TUMOR) was “active; positive”, the carcinogen call (Species: RABBIT, Route: ORAL, Tumor Site: Type of Lesion: LIVER) was “active; positive” and the carcinogen call (Species: RAT, Route: INHALATION, Tumor Site: Type of Lesion: NASAL CAVITY) was “active; positive”. The carcinogen call (Species: RAT, Route: ORAL, Tumor Site: Type of Lesion: LIVER, KIDNEY) was “active; positive”, the carcinogen call (Species: RAT, Route: SUBCUTANEOUS, INTRAPERITONEAL, Tumor Site: Type of Lesion: KIDNEY) was “active; positive” and the carcinogen call (Species: RAT, Strain/Sex: F344/FEMALE, Route: INTRAVESICULAR, Dose: 0, 2 MG IN 0.2 ML ETHANOL: DEIONIZED WATER (1:3) 2/WK FOR 30 WK (TOTAL DOSE: 1.6 MMOL) (STUDY DURATION: LIFESPAN), Tumor Site: Type of Lesion: KIDNEY: MESENCHYMAL NEOPLASM, LUNG: TUMOR) was “active; positive”. The carcinogen call (Species: RAT, Strain/Sex: SPRAGUE-DAWLEY/FEMALE, Route: INHALATION, Dose: 0, 0.04, 0.2, 1 PPM 4-5 HR/D 4 D/WK FOR 207 D (ESTIMATED DAILY UPTAKE OF 0; 10; 40; 180 UG/KG) (STUDY DURATION: 207 D), Dose: 0, 0.04, 0.2, 1 PPM 4-5 HR/D 4 D/WK FOR 207 D (ESTIMATED DAILY UPTAKE OF 0; 10; 40; 180 UG/KG) (STUDY DURATION: 207 D), Tumor Site: Type of Lesion: NASAL CAVITY: TUMOR) was “active; positive”, the carcinogen call (Species: RAT, Strain/Sex: WISTAR/FEMALE, Route: INTRAPERITONEAL, Dose: 0, 0.04% IN 0.1-0.2 ML PHYSIOLOGICAL SALINE 1/D FOR D 1-5 OF LIFE (TOTAL DOSE 0.2 MG) (STUDY DURATION: LIFESPAN OR 1 YR), Tumor Site: Type of Lesion: LIVER: HEPATOCELLULAR CARCINOMA, HEPATOMA, CHOLANGIOMA, ANGIOMA, KIDNEY: MESENCHYMAL TUMOR, EPITHELIAL TUMOR) was “active; positive” and the carcinogen call (Species: RAT, Strain/Sex: WISTAR/FEMALE, Route: INTRAPERITONEAL, Dose: 0, 0.04% IN 0.1-0.2 ML PHYSIOLOGICAL SALINE 1/D FOR D 1-10 OF LIFE (TOTAL DOSE 0.4 MG) (STUDY DURATION: LIFESPAN OR 1 YR, Tumor Site: Type of Lesion: LIVER: HEPATOCELLULAR CARCINOMA, HEPATOMA, CHOLANGIOMA, ANGIOMA, KIDNEY: MESENCHYMAL TUMOR, EPITHELIAL TUMOR) was “active; positive”. For the same compound, the carcinogen call (Species: RAT, Strain/Sex: WISTAR/FEMALE, Route: INTRAPERITONEAL, Dose: 0, 0.04% IN 0.1-0.2 ML PHYSIOLOGICAL SALINE 1/D FOR D 1-20 OF LIFE (TOTAL DOSE 0.5 MG) (STUDY DURATION: LIFESPAN OR 1 YR, Tumor Site: Type of Lesion: LIVER: HEPATOCELLULAR CARCINOMA, HEPATOMA, ANGIOMA, KIDNEY: MESENCHYMAL TUMOR) was “active; positive”, the carcinogen call (Species: RAT, Strain/Sex: WISTAR/FEMALE, Route: ORAL, Dose: 0, 0.033, 0.066, 0.132, 0.264, 0.528, 1.056, 1.584, 2.112, 2.640, 3.168, 4.224, 5.280, 6.336, 8.448, 16.896 PPM IN DRINK, Dose: 0, 0.033, 0.066, 0.132, 0.264, 0.528, 1.056, 1.584, 2.112, 2.640, 3.168, 4.224, 5.280, 6.336, 8.448, 16.896 PPM IN DRINK, Tumor Site: Type of Lesion: LIVER: HEPATOCELLULAR CARCINOMA, HEMANGIOMA, BILE DUCT: TUMOR) was “active; positive” and the carcinogen call (Species: RAT, Strain/Sex: WISTAR/MALE, Route: INTRAPERITONEAL, Dose: 0, 0.04% IN 0.1-0.2 ML PHYSIOLOGICAL SALINE 1/D FOR D 1-5 OF LIFE (TOTAL DOSE 0.2 MG) (STUDY DURATION: LIFESPAN OR 1 YR), Tumor Site: Type of Lesion: LIVER: HEPATOCELLULAR CARCINOMA, HEPATOMA, CHOLANGIOMA, KIDNEY: MESENCHYMAL TUMOR, EPITHELIAL TUMOR) was “active; positive”. For the same compound, the carcinogen call (Species: RAT, Strain/Sex: WISTAR/MALE, Route: INTRAPERITONEAL, Dose: 0, 0.04% IN 0.1-0.2 ML PHYSIOLOGICAL SALINE 1/D FOR D 1-10 OF LIFE (TOTAL DOSE 0.4 MG) (STUDY DURATION: LIFESPAN OR 1 YR, Tumor Site: Type of Lesion: LIVER: HEPATOCELLULAR CARCINOMA, HEPATOMA, CHOLANGIOMA, ANGIOMA, KIDNEY: MESENCHYMAL TUMOR, EPITHELIAL TUMOR) was “active; positive”, the carcinogen call (Species: RAT, Strain/Sex: WISTAR/MALE, Route: INTRAPERITONEAL, Dose: 0, 0.04% IN 0.1-0.2 ML PHYSIOLOGICAL SALINE 1/D FOR D 1-20 OF LIFE (TOTAL DOSE 0.5 MG) (STUDY DURATION: LIFESPAN OR 1 YR, Tumor Site: Type of Lesion: LIVER: HEPATOCELLULAR CARCINOMA, HEPATOMA, ANGIOMA, KIDNEY: MESENCHYMAL TUMOR) was “active; positive” and the carcinogen call (Species: RAT, Strain/Sex: WISTAR/MALE, Route: ORAL, Dose: 0, 0.033, 0.066, 0.132, 0.264, 0.528, 1.056, 1.584, 2.112, 2.640, 3.168, 4.224, 5.280, 6.336, 8.448, 16.896 PPM IN DRINK, Dose: 0, 0.033, 0.066, 0.132, 0.264, 0.528, 1.056, 1.584, 2.112, 2.640, 3.168, 4.224, 5.280, 6.336, 8.448, 16.896 PPM IN DRINK, Tumor Site: Type of Lesion: LIVER: HEPATOCELLULAR CARCINOMA, HEMANGIOMA, BILE DUCT: TUMOR) was “active; positive”.

`Cc1c([N+](=O)[O-])c2ccccc2c2ccc3ccccc3c12` was tested, and the carcinogen call (Species: MOUSE, Strain/Sex: SWISS/FEMALE, Route: INTRAPERITONEAL, Dose: 0, 100 NMOL (TOTAL DOSE) ADMINISTERED 1/7, 2/7 AND 4/7 ON DAY 1, 8 AND 15 RESPECTIVELY (STUDY DURATION: 32 WK)) was “inactive; negative” and the carcinogen call (Species: MOUSE, Strain/Sex: SWISS/MALE, Route: INTRAPERITONEAL, Dose: 0, 100 NMOL (TOTAL DOSE) ADMINISTERED 1/7, 2/7 AND 4/7 ON DAY 1, 8 AND 15 RESPECTIVELY (STUDY DURATION: 32 WK), Tumor Site: Type of Lesion: LIVER: TUMOR) was “active; positive”.
